In PubChem BioAssay (NCI):
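Five concentrations, 48 hours, 96-well plates. The concentration for 50% growth inhibition is given as GI50. At the TGI there is no net growth.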

Tests used:
Assay in all cases: DTP human tumour cell line panel, 48 h
[1] = system: NCI/ADR-RES ovarian
[2] = system: SR leukemia
[3] = system: PC-3 prostate
[4] = system: SK-MEL-5 melanoma
[5] = system: CCRF-CEM leukemia
[6] = system: HS 578T breast
[7] = system: RPMI-8226 leukemia
[8] = system: HT29 colon
[9] = system: NCI-H522 lung
[10] = system: SK-OV-3 ovarian
[11] = system: MCF7 breast
[12] = system: SK-MEL-28 melanoma
[13] = system: NCI-H460 lung
[14] = system: SNB-75 CNS
[15] = system: SF-295 CNS
[16] = system: ACHN renal
[17] = system: HOP-62 NSCLC
[18] = system: MALME-3M melanoma
[19] = system: MDA-MB-231 breast
[20] = system: LOX IMVI melanoma
[21] = system: HOP-92 NSCLC
[22] = system: RXF 393 renal
[23] = system: U251 CNS
[24] = system: UACC-257 melanoma
[25] = system: EKVX NSCLC
[26] = system: SN12C renal
[27] = system: HL-60(TB) leukemia
[28] = system: UO-31 renal
[29] = system: MOLT-4 leukemia
[30] = system: CAKI-1 renal
[31] = system: COLO 205 colon
[32] = system: TK-10 renal
[33] = system: K-562 leukemia
[34] = system: HCT-15 colon
[35] = system: A549 NSCLC
[36] = system: OVCAR-5 ovarian
[37] = system: OVCAR-8 ovarian
[38] = system: SK-MEL-2 melanoma
[39] = system: NCI-H23 lung
[40] = system: SNB-19 CNS
[41] = system: OVCAR-4 ovarian
[42] = system: HCC-2998 colon
[43] = system: 786-0 renal
[44] = system: HCT-116 colon
[45] = system: IGROV1 ovarian
[46] = system: UACC-62 melanoma
[47] = system: MDA-MB-435
[48] = system: A498 renal
[49] = system: OVCAR-3 ovarian
[50] = system: SF-268 CNS
[51] = system: BT-549 breast
[52] = system: KM12 colon
[53] = system: SF-539 CNS
[54] = system: T-47D breast
[55] = system: DU-145 prostate

Question: `CCOC(=O)c1ccc2c(c1)nc(-c1ccc(Cl)cc1)n2-c1cc(C(C)(C)C)[nH]n1` was tested. Which GI50 [1] did it give?
Answer: 2.13 µM

Question: And the TGI [1]?
Answer: 6.65 µM

Question: And the GI50 [2]?
Answer: 0.635 µM

Question: What about the TGI [2] of the same compound?
Answer: 8.16 µM

Question: And the GI50 [3]?
Answer: 2.82 µM

Question: And the TGI [3]?
Answer: > 100 µM

Question: And the GI50 [4]?
Answer: 1.33 µM

Question: And the TGI [4]?
Answer: 3.39 µM

Question: What about the GI50 [5] of the same compound?
Answer: 3.06 µM

Question: And the TGI [5]?
Answer: 34.1 µM

Question: What about the GI50 [6] of the same compound?
Answer: 2.76 µM

Question: And the TGI [6]?
Answer: 8.57 µM

Question: What about the GI50 [7] of the same compound?
Answer: 2.99 µM

Question: And the TGI [7]?
Answer: 22.9 µM

Question: What about the GI50 [8] of the same compound?
Answer: 2.79 µM

Question: And the TGI [8]?
Answer: 7.17 µM

Question: What about the GI50 [9] of the same compound?
Answer: 2.52 µM

Question: And the TGI [9]?
Answer: 6.66 µM

Question: What about the GI50 [10] of the same compound?
Answer: 3.43 µM

Question: And the TGI [10]?
Answer: 36.9 µM

Question: And the GI50 [11]?
Answer: 2.78 µM

Question: And the TGI [11]?
Answer: 12.2 µM

Question: And the GI50 [12]?
Answer: 2.49 µM

Question: What about the TGI [12] of the same compound?
Answer: 12.2 µM

Question: And the GI50 [13]?
Answer: 2.94 µM

Question: And the TGI [13]?
Answer: 8.02 µM

Question: What about the GI50 [14] of the same compound?
Answer: 2.53 µM

Question: What about the TGI [14] of the same compound?
Answer: > 100 µM

Question: What about the GI50 [15] of the same compound?
Answer: 2.62 µM

Question: And the TGI [15]?
Answer: 11.4 µM

Question: What about the GI50 [16] of the same compound?
Answer: 3.28 µM

Question: And the TGI [16]?
Answer: 10.1 µM

Question: And the GI50 [17]?
Answer: 3.69 µM

Question: What about the TGI [17] of the same compound?
Answer: > 100 µM

Question: And the GI50 [18]?
Answer: 2.75 µM

Question: And the TGI [18]?
Answer: 9.18 µM

Question: What about the GI50 [19] of the same compound?
Answer: 4.2 µM

Question: What about the TGI [19] of the same compound?
Answer: 40.8 µM

Question: And the GI50 [20]?
Answer: 2.73 µM

Question: And the TGI [20]?
Answer: 10.8 µM

Question: What about the GI50 [21] of the same compound?
Answer: 1.02 µM

Question: What about the TGI [21] of the same compound?
Answer: 4.79 µM

Question: What about the GI50 [22] of the same compound?
Answer: 1.81 µM

Question: What about the TGI [22] of the same compound?
Answer: 5.87 µM

Question: What about the GI50 [23] of the same compound?
Answer: 3.04 µM

Question: What about the TGI [23] of the same compound?
Answer: > 100 µM

Question: And the GI50 [24]?
Answer: 3.41 µM

Question: What about the TGI [24] of the same compound?
Answer: > 100 µM

Question: And the GI50 [25]?
Answer: 3.02 µM

Question: And the TGI [25]?
Answer: > 100 µM

Question: And the GI50 [26]?
Answer: 3.33 µM

Question: What about the TGI [26] of the same compound?
Answer: 40.6 µM

Question: What about the GI50 [27] of the same compound?
Answer: 3.65 µM

Question: What about the TGI [27] of the same compound?
Answer: 9.2 µM

Question: What about the GI50 [28] of the same compound?
Answer: 2.76 µM

Question: And the TGI [28]?
Answer: 45.7 µM

Question: And the GI50 [29]?
Answer: 3.28 µM

Question: And the TGI [29]?
Answer: 30.4 µM

Question: What about the GI50 [30] of the same compound?
Answer: 2.77 µM

Question: And the TGI [30]?
Answer: > 100 µM

Question: And the GI50 [31]?
Answer: 2.23 µM

Question: And the TGI [31]?
Answer: 4.75 µM

Question: What about the GI50 [32] of the same compound?
Answer: 3.62 µM

Question: What about the TGI [32] of the same compound?
Answer: > 100 µM

Question: What about the GI50 [33] of the same compound?
Answer: 2.72 µM

Question: And the TGI [33]?
Answer: 16.1 µM

Question: And the GI50 [34]?
Answer: 3.27 µM

Question: What about the TGI [34] of the same compound?
Answer: > 100 µM

Question: And the GI50 [35]?
Answer: 3.13 µM

Question: And the TGI [35]?
Answer: > 100 µM

Question: And the GI50 [36]?
Answer: 3.68 µM

Question: And the TGI [36]?
Answer: > 100 µM

Question: And the GI50 [37]?
Answer: 2.55 µM

Question: And the TGI [37]?
Answer: 12.7 µM

Question: And the GI50 [38]?
Answer: 1.93 µM

Question: What about the TGI [38] of the same compound?
Answer: 4.4 µM

Question: What about the GI50 [39] of the same compound?
Answer: 2.72 µM

Question: And the TGI [39]?
Answer: > 100 µM

Question: And the GI50 [40]?
Answer: 3.32 µM

Question: And the TGI [40]?
Answer: > 100 µM

Question: And the GI50 [41]?
Answer: 3.64 µM

Question: What about the TGI [41] of the same compound?
Answer: > 100 µM

Question: And the GI50 [42]?
Answer: 3.03 µM

Question: What about the TGI [42] of the same compound?
Answer: 16.2 µM

Question: What about the GI50 [43] of the same compound?
Answer: 3.17 µM

Question: What about the TGI [43] of the same compound?
Answer: > 100 µM

Question: What about the GI50 [44] of the same compound?
Answer: 3.12 µM

Question: And the TGI [44]?
Answer: 29.9 µM

Question: What about the GI50 [45] of the same compound?
Answer: 3.77 µM

Question: What about the TGI [45] of the same compound?
Answer: > 100 µM

Question: And the GI50 [46]?
Answer: 1.67 µM

Question: What about the TGI [46] of the same compound?
Answer: 4 µM

Question: What about the GI50 [47] of the same compound?
Answer: 0.717 µM

Question: What about the TGI [47] of the same compound?
Answer: 7.1 µM

Question: And the GI50 [48]?
Answer: 2.19 µM

Question: And the TGI [48]?
Answer: 6.51 µM

Question: What about the GI50 [49] of the same compound?
Answer: 2.05 µM

Question: And the TGI [49]?
Answer: 5.65 µM

Question: What about the GI50 [50] of the same compound?
Answer: 3.13 µM

Question: What about the TGI [50] of the same compound?
Answer: 13.8 µM

Question: And the GI50 [51]?
Answer: 2.88 µM

Question: What about the TGI [51] of the same compound?
Answer: 8.4 µM

Question: What about the GI50 [52] of the same compound?
Answer: 2.78 µM

Question: What about the TGI [52] of the same compound?
Answer: 14.2 µM

Question: What about the GI50 [53] of the same compound?
Answer: 2.16 µM

Question: And the TGI [53]?
Answer: 4.99 µM

Question: And the GI50 [54]?
Answer: 3.78 µM

Question: What about the TGI [54] of the same compound?
Answer: > 100 µM

Question: And the GI50 [55]?
Answer: 2.85 µM
